In PubChem BioAssay (NCI):
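Interpolation was linear, between the two tested concentrations surrounding the appropriate level; five concentrations were tested over 48 hours in 96-well plates. The concentration for 50% growth inhibition is given as GI50. The concentration for full growth arrest is given as TGI.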

Assays:
Assay in all cases: NCI tumour cell line growth inhibition, 48 h
OVCAR-4 ovarian = system: OVCAR-4 ovarian
K-562 leukemia = system: K-562 leukemia
M14 melanoma = system: M14 melanoma
UACC-257 melanoma = system: UACC-257 melanoma
HS 578T breast = system: HS 578T breast
NCI-H23 lung = system: NCI-H23 lung
SK-MEL-28 melanoma = system: SK-MEL-28 melanoma
IGROV1 ovarian = system: IGROV1 ovarian
HT29 colon = system: HT29 colon
HOP-62 NSCLC = system: HOP-62 NSCLC

| SMILES | TGI (OVCAR-4 ovarian) [µM] | TGI (K-562 leukemia) [µM] | TGI (M14 melanoma) [µM] | TGI (UACC-257 melanoma) [µM] | TGI (HS 578T breast) [µM] | TGI (NCI-H23 lung) [µM] | TGI (SK-MEL-28 melanoma) [µM] | TGI (IGROV1 ovarian) [µM] | TGI (HT29 colon) [µM] | TGI (HOP-62 NSCLC) [µM] | GI50 (M14 melanoma) [µM] | GI50 (HS 578T breast) [µM] | GI50 (SK-MEL-28 melanoma) [µM] | GI50 (IGROV1 ovarian) [µM] | GI50 (HT29 colon) [µM] | GI50 (HOP-62 NSCLC) [µM] | GI50 (OVCAR-4 ovarian) [µM] | GI50 (K-562 leukemia) [µM] | GI50 (UACC-257 melanoma) [µM] | GI50 (NCI-H23 lung) [µM] |
| --- | --- | --- | --- | --- | --- | --- | --- | --- | --- | --- | --- | --- | --- | --- | --- | --- | --- | --- | --- | --- |
| C=C1C(=O)O[C@@H]2C[C@@H](C)[C@@H]3C=CC(=O)[C@@]3(C)[C@@H](OC(=O)CCCC(=O)O[C@H]3[C@@H]4C(=C)C(=O)O[C@@H]4C[C@@H](C)[C@@H]4C=CC(=O)[C@]43C)[C@H]12 | 0.262 | 0.0363 | 0.0584 | 0.271 | 0.433 | 0.275 | 0.136 | 0.313 | 0.152 | 2.61 |  |  |  |  |  |  |  |  |  |  |
| CCNc1ccc2c(c1)C(=O)N(OS(C)(=O)=O)C2=O | > 100 |  | > 100 | > 100 | > 100 | > 100 | > 100 |  | > 100 | > 100 |  |  |  |  |  |  |  |  |  |  |
| CCCCS(=O)(=O)c1cc(Nc2ccc(O)c3c2C(=O)c2ccccc2C3=O)ccc1C |  |  | > 100 |  | > 100 |  | > 100 | > 100 | > 100 | > 100 | 2.87 | 75.5 | > 100 | > 100 | > 100 | 27.8 |  |  |  |  |
| COc1c(OC2OC(C)C(O)C(O)C2O)c(OC)c2oc(-c3ccc(O)cc3)cc(=O)c2c1O (stereo unspecified) | > 100 | > 100 |  | 28.1 | > 100 | 57.1 | > 100 | 92.2 | > 100 | > 100 |  | 29.8 | 35.4 | 18.1 | 30 | 35.1 | 29.7 | 26.2 | 3.97 | 20.6 |
| COc1cc(N)c(Cl)cc1C(=O)N[C@@H]1CCN(CCCOc2ccc(F)cc2)C[C@@H]1OC | > 100 | 74.1 | 88.8 |  | > 100 | > 100 | > 100 | > 100 | > 100 |  | 27.4 | > 100 | > 100 | > 100 | 20.5 |  | > 100 | 26.3 |  | > 100 |
| O=C(O)C(Cc1ccccc1)N1C(=O)/C(=C/C(Cl)=C/c2ccc([N+](=O)[O-])cc2)SC1=S (stereo unspecified) | > 100 | > 100 |  | 4.95 | > 100 | 4.86 | 4.68 |  | 8.47 | 6.75 |  | 4.37 | 2.16 |  | 2.84 | 2.31 | 3.21 | 3.01 | 1.97 | 2.13 |
| COc1cc(C=NCC(=O)CSC(c2ccccc2)c2ccccc2)ccc1O | 23 | 23.3 | 25.9 | 18.7 | 5.52 | 20.5 | 27.6 |  | 28.6 | 27.9 | 13.2 | 0.0464 | 14.4 |  | 15.3 | 14.6 | 5.32 | 4.73 | 5.94 | 8 |
| C=C(CN1CCN(c2ccccn2)CC1)c1ccc(C(=O)Nc2ccccc2N)cc1 | > 50 | > 50 | > 50 | > 50 | 6.28 | 2.44 | > 50 | 37.8 |  | > 50 | 8.48 | 1.11 | 2.52 | 1.57 |  | 1.32 | 6.35 | 0.956 | 2.32 | 0.939 |
